Test results as given in patent US11957760B2, “Folate receptor targeted nanoparticle drug conjugates and uses thereof” (priority 2020, dated 2024).
Where two headings read alike, the source gives them in different places.

Columns and labels:
naïve KB cells = test: IC50 assay in naïve KB cells; assay type: cell-based; conditions: Homo sapiens; naïve (regular) KB cells
Excerpt: (§1) Naïve human KB cell line were purchased from ATCC and maintained in folic acid free RPMI 1640 media/10% FBS, and 1% of penicillin/streptomycin. To develop the TOP1 inhibitor resistant KB cells, the cells in flask (50-60% confluence) were repeatedly treated with increasing concentration of exatecan, topotecan, SN-38 or irinotecan for over 4 months. The starting TOP1 inhibitor treatment concentration was close to the KB cell's IC90 values. After each treatment, the cells were carefully washed with fresh RPMI 1640 media and left to proliferate for an additional 2-3 days until reaching 50-60% confluence.
(§2) Both naïve and TOP1 inhibitor resistant KB cell were cultured in folic acid-free medium (RPMI1640, ThermoFisher, GIBCO). Cells were plated in opaque 96-well plates at a density of 3×10^3 cells per well (total of 90 μL) and allowed to attach overnight. […] After exposing the TOP1 inhibitors with both types of cells for the same period of time, the cell viability was assessed using the CellTiter-Glo2.0 assay (Promega) according to manufacturer's instructions. Data for both viability and proliferation were plotted using Prism7 software (GraphPad). The resistant factor can be calculated by using the following equation:

[1] = tested on: exatecan-resistant KB cells; test: IC50 assay in exatecan-resistant KB cells; assay type: cell-based, human; conditions: for IC50: Homo sapiens
Protocol: To develop the TOP1 inhibitor resistant KB cells, the cells in flask (50-60% confluence) were repeatedly treated with increasing concentration of exatecan, topotecan, SN-38 or irinotecan for over 4 months. The starting TOP1 inhibitor treatment concentration was close to the KB cell's IC90 values.
The following day, cells were treated with selected TOP1 inhibitors (e.g., free exatecan) or NDC at suitable concentration ranges. […] The resistant factor can be calculated by using the following equation: […]

[2] = tested on: irinotecan-resistant KB cells; test: IC50 assay in irinotecan-resistant KB cells; assay type: cell-based, human
Excerpt: as §1, §2

Compound	IC50 (naïve KB cells)	resistance of exatecan-resistant versus naïve KB cells [1]	IC50 ([1]; KB, KB cells pretreated 7× with exatecan)	IC50 ([1]; KB cells pretreated 4× with exatecan, read-out: IC50)	resistance of irinotecan-resistant versus naïve KB cells [2]	IC50 ([2]; Homo sapiens, irinotecan-resistant KB cells)
CC[C@@]1(O)C(=O)OCc2c1cc1n(c2=O)Cc2c-1nc1cc(F)c(C)c3c1c2[C@@H](N)CC3 [exatecan]	2 nM	> 8 ×	16.9 nM	4 nM		
CCc1c2c(nc3ccc(OC(=O)N4CCC(N5CCCCC5)CC4)cc13)-c1cc3c(c(=O)n1C2)COC(=O)[C@]3(O)CC [irinotecan]	668 nM				5 ×	3620 nM
